Test results reported in patent publication US12128028B2, “Heterocyclic sulfonamide derivatives and pharmaceutical uses thereof” (METRION BIOSCIENCES LIMITED, priority 2018, dated 2024).

biological target: human Kv1.3 (Homo sapiens (Human), UniProt P22001); assay: Kv1.3 potency evaluation, automated patch clamp electrophysiology (QPatch HT) in CHO-Kv1.3 cells; type: cell-based; settings: whole-cell QPatch HT, % inhibition of charge, step to +30 mV, four concentrations, N≥3 cells, read-out: hKv1.3 IC50
Method in brief: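 Automated whole-cell patch clamp in CHO cells stably expressing human Kv1.3; steps from −80 to +30 mV (500 ms) at 0.067 Hz. Four cumulative concentrations after vehicle (0.1-0.3% DMSO); charge inhibition vs vehicle fitted by four-parameter logistic for IC50, N≥3 cells.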

Sequence of human Kv1.3 (P22001 whole entry): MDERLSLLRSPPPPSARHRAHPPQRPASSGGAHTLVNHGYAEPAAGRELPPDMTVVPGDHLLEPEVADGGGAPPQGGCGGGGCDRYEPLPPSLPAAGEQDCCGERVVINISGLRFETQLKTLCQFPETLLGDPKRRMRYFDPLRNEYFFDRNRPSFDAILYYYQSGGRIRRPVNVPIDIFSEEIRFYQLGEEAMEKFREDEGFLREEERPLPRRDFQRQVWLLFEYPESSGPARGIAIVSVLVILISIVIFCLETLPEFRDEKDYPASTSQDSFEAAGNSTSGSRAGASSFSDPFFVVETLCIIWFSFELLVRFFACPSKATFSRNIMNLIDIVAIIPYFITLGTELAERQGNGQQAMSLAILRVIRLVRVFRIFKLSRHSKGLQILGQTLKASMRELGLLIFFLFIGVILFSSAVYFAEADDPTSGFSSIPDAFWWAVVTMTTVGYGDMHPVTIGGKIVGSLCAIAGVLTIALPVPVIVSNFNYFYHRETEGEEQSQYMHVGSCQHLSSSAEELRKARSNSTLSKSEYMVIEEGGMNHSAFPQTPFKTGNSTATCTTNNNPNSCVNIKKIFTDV

Row | SMILES | IC50 [nM]
1 | CC1(C)N=C(C23CC(N(Cc4ccc(Cl)cc4)S(=O)(=O)c4ccccc4)(C2)C3)N[C@H]1C(=O)NC1CC(C(F)F)C1 (mixture of isomers) [Example 101] | 67
2 | CC1(C)N=C(C23CC(N(Cc4ccc(Cl)cc4)S(=O)(=O)CCCCF)(C2)C3)N[C@H]1C(=O)NCCC(F)(F)F (mixture of isomers) [Example 102] | 68
3 | CC1(C)N=C(C23CC(N(Cc4ccc(Cl)c(Cl)c4)S(=O)(=O)CCC(F)F)(C2)C3)N[C@H]1C(=O)NCC1CC1(F)F (mixture of isomers) [Example 103] | 68
4 | CC1(C)N=C(C23CC(N(Cc4ccc(Cl)cc4)S(=O)(=O)CC4CCC4)(C2)C3)N[C@H]1C(=O)NCCC(F)(F)F (mixture of isomers) [Example 105] | 69
5 | CC(C)(C)CNC(=O)[C@@H]1NC(C23CC(N(Cc4ccc(Cl)c(Cl)c4)S(=O)(=O)CCC(F)F)(C2)C3)=NC1(C)C (mixture of isomers) [Example 106] | 70
6 | CC(F)(F)CCS(=O)(=O)N(Cc1ccc(Cl)c(F)c1)C12CC(C3=NC(C)(C)[C@H](C(=O)NCCC(F)(F)F)N3)(C1)C2 (mixture of isomers) [Example 111] | 72
7 | CC1(C)N=C(C23CC(N(Cc4ccc(Cl)c(Cl)c4)S(=O)(=O)c4ccccc4)(C2)C3)N[C@H]1C(=O)N1CCC2(C1)CC(F)(F)C2 (mixture of isomers) [Example 116] | 73
8 | CN(CCC(F)(F)F)C(=O)[C@@H]1NC(C23CC(N(Cc4ccc(Cl)c(Cl)c4)S(=O)(=O)CCC(C)(F)F)(C2)C3)=NC1(C)C (mixture of isomers) [Example 117] | 73
9 | CN(C(=O)[C@@H]1NC(C23CC(N(Cc4ccc(Cl)c(Cl)c4)S(=O)(=O)c4ccccc4)(C2)C3)=NC1(C)C)C1CC(C(F)F)C1 (mixture of isomers) [Example 120] | 74
10 | CC1(C)N=C(C23CC(N(Cc4ccc(Cl)cc4)S(=O)(=O)C4CCCC4)(C2)C3)N[C@H]1C(=O)NCCC(F)(F)F (mixture of isomers) [Example 121] | 75
11 | CC1(C)N=C(C23CC(N(Cc4ccc(Cl)c(Cl)c4)S(=O)(=O)CCCF)(C2)C3)N[C@H]1C(=O)NCCC(F)(F)F (mixture of isomers) [Example 128] | 77
12 | CCCS(=O)(=O)N(Cc1ccc(Cl)c(Cl)c1)C12CC(C3=NC(C)(C)[C@H](C(=O)N4CCC(C(F)(F)F)CC4)N3)(C1)C2 (mixture of isomers) [Example 130] | 78
13 | CC1(C)N=C(C23CC(N(Cc4ccc(Cl)c(Cl)c4)S(=O)(=O)CCCF)(C2)C3)N[C@H]1C(=O)NCC1CC(F)(F)C1 (mixture of isomers) [Example 132] | 78
14 | CC1(C)N=C(C23CC(N(Cc4ccc(Cl)c(Cl)c4)S(=O)(=O)c4ccccc4)(C2)C3)N[C@H]1C(=O)N1CCC12CC(F)(F)C2 (mixture of isomers) [Example 134] | 79
15 | CCCS(=O)(=O)N(Cc1ccc(Cl)c(Cl)c1)C12CC(C3=NC(C)(C)[C@H](C(=O)NCCC(F)(F)F)N3)(C1)C2 (mixture of isomers) [Example 136] | 82
16 | CC1(C)N=C(C23CC(N(Cc4ccc(Cl)cc4)S(=O)(=O)CCC(F)F)(C2)C3)N[C@H]1C(=O)NCCC(F)(F)F (mixture of isomers) [Example 137] | 82
17 | CC(C)(C)CS(=O)(=O)N(Cc1ccc(Cl)cc1)C12CC(C3=NC(C)(C)[C@H](C(=O)NCCC(F)(F)F)N3)(C1)C2 (mixture of isomers) [Example 139] | 84
18 | CC1(C)N=C(C23CC(N(Cc4ccc(Cl)c(Cl)c4)S(=O)(=O)CCCF)(C2)C3)N[C@H]1C(=O)NCC(F)(F)C(F)(F)F (mixture of isomers) [Example 142] | 84
19 | CCCS(=O)(=O)N(Cc1ccc(Cl)c(Cl)c1)C12CC(C3=NC(C)(C)[C@H](C(=O)NCC4(C(F)(F)F)CC4)N3)(C1)C2 (mixture of isomers) [Example 143] | 85
20 | CC1(C)N=C(C23CC(N(Cc4ccc(Cl)c(F)c4)S(=O)(=O)c4ccccc4)(C2)C3)N[C@@H]1C(=O)NCCC(F)(F)F (mixture of isomers) [Example 146] | 88

More lines, now with the values ahead:

Row | IC50 [nM] | SMILES
21 | 67 | CCN(CCC(F)(F)F)C(=O)[C@@H]1NC(C23CC(N(Cc4ccc(Cl)c(F)c4)S(=O)(=O)c4ccccc4)(C2)C3)=NC1(C)C (mixture of isomers) [Example 100]
22 | 69 | CC1(C)N=C(C23CC(N(Cc4ccc(Cl)c(F)c4)S(=O)(=O)c4ccccc4)(C2)C3)N[C@H]1C(=O)NC1CCC(F)(F)CC1 (mixture of isomers) [Example 104]
23 | 71 | CC1(C)N=C(C23CC(N(Cc4ccc(Cl)cc4)S(=O)(=O)c4ccccc4Cl)(C2)C3)N[C@H]1C(=O)NCCC(F)(F)F (mixture of isomers) [Example 107]
24 | 71 | CC1(C)N=C(C23CC(N(Cc4ccc(Cl)c(F)c4)S(=O)(=O)c4ccccc4)(C2)C3)N[C@H]1C(=O)NCCCC(F)(F)F (mixture of isomers) [Example 108]
25 | 71 | CC1(C)N=C(C23CC(N(Cc4ccc(Cl)c(F)c4)S(=O)(=O)c4ccccc4)(C2)C3)N[C@H]1C(=O)N1CCC2(CCC2)C1 (mixture of isomers) [Example 109]
26 | 72 | CC1(C)N=C(C23CC(N(Cc4ccc(Cl)cc4)S(=O)(=O)c4cccnc4)(C2)C3)N[C@H]1C(=O)NCCC(F)(F)F (mixture of isomers) [Example 110]
27 | 72 | CC1(C)N=C(C23CC(N(Cc4ccc(Cl)cc4)S(=O)(=O)c4ccccc4)(C2)C3)N[C@H]1C(=O)NCC(F)(F)C(F)(F)F (mixture of isomers) [Example 112]
28 | 72 | CN(CC1CC(F)(F)C1)C(=O)[C@@H]1NC(C23CC(N(Cc4ccc(Cl)c(Cl)c4)S(=O)(=O)c4ccccc4)(C2)C3)=NC1(C)C (mixture of isomers) [Example 113]
29 | 73 | CC1(C)N=C(C23CC(N(Cc4ccc(Cl)c(F)c4)S(=O)(=O)c4ccccc4)(C2)C3)N[C@H]1C(=O)NC1CC(F)(F)C1 (mixture of isomers) [Example 114]
30 | 73 | CC1(C)N=C(C23CC(N(Cc4ccc(Cl)c(Cl)c4)S(=O)(=O)c4ccccc4)(C2)C3)N[C@H]1C(=O)NC1CC(F)(F)C1 (mixture of isomers) [Example 115]
31 | 74 | CC1(C)N=C(C23CC(N(Cc4ccc(Cl)c(F)c4)S(=O)(=O)c4ccccc4)(C2)C3)N[C@H]1C(=O)NC1(CC(F)(F)F)CC1 (mixture of isomers) [Example 118]
32 | 74 | CC1(C)N=C(C23CC(N(Cc4ccc(Cl)c(F)c4)S(=O)(=O)c4ccccc4)(C2)C3)N[C@H]1C(=O)N(CCC(F)(F)F)C1CC1 (mixture of isomers) [Example 119]
33 | 75 | CC1(C)N=C(C23CC(N(Cc4ccc(C(F)F)cc4)S(=O)(=O)c4ccccc4)(C2)C3)N[C@H]1C(=O)NCCC(F)(F)F (mixture of isomers) [Example 122]
34 | 75 | CC1(C)N=C(C23CC(N(Cc4ccc(Cl)c(F)c4)S(=O)(=O)c4ccccc4)(C2)C3)N[C@H]1C(=O)N1CCC(F)(F)CC1 (mixture of isomers) [Example 123]
35 | 75 | CC1(C)N=C(C23CC(N(Cc4ccc(Cl)c(F)c4)S(=O)(=O)c4ccccc4)(C2)C3)N[C@H]1C(=O)N1CCC(F)CC1 (mixture of isomers) [Example 124]
36 | 75 | CC1(C)N=C(C23CC(N(Cc4ccc(Cl)c(F)c4)S(=O)(=O)c4ccccc4)(C2)C3)N[C@H]1C(=O)N1CC[C@@H](C(F)(F)F)C1 (mixture of isomers) [Example 125]
37 | 76 | CC1(C)N=C(C23CC(N(Cc4ccc(Cl)c(F)c4)S(=O)(=O)c4ccccc4)(C2)C3)N[C@H]1C(=O)NCC(F)(F)C(F)(F)F (mixture of isomers) [Example 126]
38 | 77 | CC1(F)CCN(C(=O)[C@@H]2NC(C34CC(N(Cc5ccc(Cl)c(F)c5)S(=O)(=O)c5ccccc5)(C3)C4)=NC2(C)C)C1 (mixture of isomers) [Example 127]
39 | 78 | CC1(C)N=C(C23CC(N(Cc4ccc(Cl)c(F)c4)S(=O)(=O)c4ccccc4)(C2)C3)N[C@H]1C(=O)N1CCC2(C1)CC2(F)F (mixture of isomers) [Example 129]
40 | 78 | CC1(C)N=C(C23CC(N(Cc4ccc(Cl)c(F)c4)S(=O)(=O)c4ccccc4)(C2)C3)N[C@H]1C(=O)N1CCCC(F)(F)CC1 (mixture of isomers) [Example 131]
41 | 78 | CN(CC1CC(F)(F)C1)C(=O)[C@@H]1NC(C23CC(N(Cc4ccc(Cl)c(F)c4)S(=O)(=O)c4ccccc4)(C2)C3)=NC1(C)C (mixture of isomers) [Example 133]
42 | 81 | CC1(C)N=C(C23CC(N(Cc4ccc(Cl)c(F)c4)S(=O)(=O)c4ccccc4)(C2)C3)N[C@@H]1C(=O)NCC1CC(F)(F)C1 (mixture of isomers) [Example 135]
43 | 84 | CC1(C)N=C(C23CC(N(Cc4ccc(C(F)(F)F)cc4)S(=O)(=O)c4ccccc4)(C2)C3)N[C@H]1C(=O)NCCC(F)(F)F (mixture of isomers) [Example 138]
44 | 84 | CC1(C)N=C(C23CC(N(Cc4ccc(Cl)c(F)c4)S(=O)(=O)c4ccccc4)(C2)C3)N[C@H]1C(=O)NCC(F)(F)F (mixture of isomers) [Example 140]
45 | 84 | CC(C)(CC(F)(F)F)NC(=O)[C@@H]1NC(C23CC(N(Cc4ccc(Cl)c(F)c4)S(=O)(=O)c4ccccc4)(C2)C3)=NC1(C)C (mixture of isomers) [Example 141]
46 | 87 | CC1(C)N=C(C23CC(N(Cc4ccc(Cl)c(F)c4)S(=O)(=O)c4ccccc4)(C2)C3)N[C@H]1C(=O)N1CCC2(C1)CC(F)(F)C2 (mixture of isomers) [Example 144]
47 | 88 | CN(CCC(F)(F)F)C(=O)[C@@H]1NC(C23CC(N(Cc4ccc(Cl)c(Cl)c4)S(=O)(=O)c4ccccc4)(C2)C3)=NC1(C)C (mixture of isomers) [Example 147]
48 | 89 | CC1(C)N=C(C23CC(N(Cc4ccc(Cl)c(F)c4)S(=O)(=O)c4ccccc4)(C2)C3)N[C@H]1C(=O)NCCC1(C(F)(F)F)CC1 (mixture of isomers) [Example 149]
